According to patent publication US7985774B2, “Use of 3,5-seco-4-nor-cholestane derivatives for obtaining a cytoprotective drug” (Trophos, priority 2006, dated 2011):

Key:
[1] = system: rabbit ventricular cardiomyocytes; assay: Annexin V marking of phosphatidylserine (apoptosis) after doxorubicin; type: cell-based; conditions: 3 hrs after doxorubicin, control 100%
Method: Isolated ventricular cells are obtained from hearts of male New Zealand rabbits as described in A. d'Anglemont de Tassigny et al., Fund. Clin. Pharmacol, 18: 531-38, 2004. Briefly, the rabbits (2.0-2.5 kg) are anaesthetized with a pentobarbital solution (50 mg/kg) and they then receive heparin (200 IU/kg). The hearts are excised and immediately perfused, for 10-15 minutes by means of a Langendorff apparatus without recirculation with an oxygenated tyrode (calcium-free) isotonic solution (95%, 2-5% CO2) (in mM: NaCl 135, KCl 5.4, Na2PO4 0.33, MgCl2 1.0, HEPES 10, pH adjusted to 7.4 with 1N NaOH at 37° C., 280-300 mOsmol/kgH2O). Next, all the hearts are perfused for 3 minutes in the “recirculation” mode with the same calcium-free Tyrode solution (coronary flow rate, 10-15 mL/min) added with 1 mg/mL of type II collagenase and 0.28 mg/mL of XIV type protease. Finally, all the hearts are perfused in a mode without any recirculation with the same solution of Tyrode supplemented with 0.3 mM of CaCl2 for 10 min. The left ventricle is removed and cut into small pieces; cell dissociation is achieved by mild mechanical stirring. Extracellular calcium is added by increments every 15 minutes, in order to reach a physiological concentration of 1.0 mM. […]
Annexin V marking of phosphatidylserine was used as a quantitative method for measuring apoptosis by using the MiniMacs cell isolation kit (Miltenyi Biotec, Bergisch, Gladbach, Germany). […] The column is removed from the magnetic field, the cells exposing phosphatidylserine, magnetically retained, are eluted as a positive fraction and counted with a Mallassez cell counter. […]
Apoptosis is induced in isolated cardiomyocytes by 3-8 hour exposure to 1 μM of doxorubicin added into an isotonic solution containing (in mM) NaCl 110, KCl 5.4, Na2PO4 0.33, NaHCO3 25, glucose 5, MgCl2 0.8, CaCl2 1, pH adjusted to 7.4. […] The contractility of cardiomyocytes was measured every hour during the 8 hrs of exposure to doxorubicin. […]

C57BL6 mice = assay: In vivo model of myocardium infarction (coronary occlusion-reperfusion)
Method: The purpose of this experiment is to study in vivo the cardioprotective properties of the compounds, 3,5-seco-4-nor-cholestan-5-one oxime-3-ol and 3,5-seco-4-nor-cholestan-5-one oxime-3-N,N-dimethylglycine ester, in a murine coronary occlusion-reperfusion model.
The compounds to be tested are administered intravenously in mice, 5 minutes before reperfusion of the myocardium ischemiated beforehand. As controls, carriers of the compounds beta-cyclodextrin (hereafter called βCD) and water, respectively, are administered under the same conditions as for the compounds.
In order to determine the effect of the tested compounds, the size of the infarction is measured after 24 hour reperfusion.
6-8 week old male C57BL6 mice are anaesthetized with sodium pentobarbital (50 mg/kg i.p.) and are ventilated after intubation with an O2/CO2 (95%/5%) mixture throughout the experiment. The surface electrocardiogram (ECG) is recorded and viewed on an oscilloscope all along surgery. Under strict asepsis conditions, the jugular vein is catheterized for intravenous administration of the compounds. A left lateral thoracotomy is performed and after pericardiotomy, a major branch of the left coronary artery is localized in the latero-posterior region of the left ventricle. A prolene no. 8 suture is positioned around this artery so as to form a mobile loop for making a temporary coronary occlusion.
All the mice were subject to a 30 minute temporary coronary occlusion. Ischemia of the myocardium region is confirmed by cyanosis of the myocardium surface and a deviation of the ST segment of the electrocardiogram.
Each of the compounds (treated group, n=10) or its solvent (control group, n=10) was administered as a bolus intravenously, 5 min before lifting the 30 minutes of coronary occlusion.
3,5-seco-4-nor-cholestan-5-one oxime-3-ol, dissolved beforehand to a final concentration of 0.46 mg/ml in a 30% βCD solution in phosphate buffer prepared by saturation followed by centrifugation, is administered at a dosage of 1 mg/kg.
3,5-seco-4-nor-cholestan-5-one oxime-3-N,N-dimethylglycine ester, dissolved beforehand to a final concentration of 1.56 mg/ml in sterile water by stirring and sonication, is administered at a dosage of 3.9 mg/kg.
The same volume of carrier is administered in the corresponding control groups.
Twenty four hours after the end of coronary occlusion, the mice are re-anaesthetized with sodium pentobarbital (50 mg/kg i.p.) and heparin is administered intravenously (Choay© heparin 1,000 IU/kg). A ligature of the coronary artery is achieved at the same location having been subject to the first occlusion 24 h previously. The mice are then euthanized with a lethal saturated dose of potassium chloride and their heart is rapidly excised and then mounted through the aorta artery on a retrograde perfusion system of the Langendorff type.
A 5% Evans blue solution is perfused retrogradely so that the healthy myocardium is colored in blue; the area made ischemic during the coronary occlusion, or <<area of risk AR>> remaining uncolored by default.
The left ventricle is then cut out into 5 slices with equal thicknesses (1 mm) by means of a slicer specially designed for hearts of mice (Les Isolants de Paris, Palaiseau), which are then weighed.
These slices are incubated in a 1% triphenyltetrazolium chloride solution (TTC, Sigma, Poole, UK) at pH 7.4 for 20 min at 37° C. and then set in 4% formol. TTC has the property of coloring the non-infarcted myocardium in red, and so showing the infarcted areas in white. Each heart slice is placed under a stereo microscope for taking a high definition digital photograph.
Quantification of infarction and the area of risk is carried out by planimetry (Scion Image, Scion, Frederick Md., USA) and referred to the weight of each slice.
The area of risk (non-blue area) is expressed as a percentage of the weight of the left ventricle. The infarction sizes are expressed as a percentage of the weight of the area of risk. […]

[2] = 1 mg/kg i.v. bolus in βCD 5 min before reperfusion, 30 min occlusion, 24 h reperfusion, mean±SEM

With CC(C)CCC[C@@H](C)[C@H]1CC[C@H]2[C@@H]3CC/C(=N\O)[C@](C)(CCCO)[C@H]3CC[C@]12C [3,5-seco-4-nor-cholestan-5-one oxime-3-ol] the “Apoptosis as % of change in annexin V marking” value ([1]; doxorubicin 1 μM + compound 0.1 μM) was 116.3%, the “Apoptosis as % of change in annexin V marking” value ([1]; doxorubicin 1 μM + compound 0.3 μM) was 137.3% and the “Area of risk (percentage of the weight of the left ventricle)” value (C57BL6 mice; [2]) was 9 +/− 4%. For the same compound, the “Infarction size (percentage of the weight of the area of risk)” value (C57BL6 mice; [2]) was 21 +/− 7% and the Infarction size reduction (C57BL6 mice; 1 mg/kg i.v., versus carrier (βCD)) was 36.4%.
